Literature values as cited in patent publication US20230414496A1, “BIODEGRADABLE POLYMER-NANOPARTICLE BASED IMPLANTS FOR OCULAR DRUG DELIVERY” (priority 2020, published 2023).
Read-outs that look alike come from different tables or passages of the source.

What was measured:
[1] = 400 μg MTX intravitreal injection
[2] = 400 μg MTX intravitreal injection, pre-clinical study; read-out: peak MTX concentration (Cmax-MTX)

Structure (SMILES): CN(Cc1cnc2nc(N)nc(N)c2n1)c1ccc(C(=O)N[C@@H](CCC(=O)O)C(=O)O)cc1 [methotrexate]
- total duration of MTX release ([1]; clinical study and pre-clinical study): 2 to 6 days
- Cmax ([1]; clinical study, read-out: peak MTX concentration (Cmax-MTX)): 360 µM
- Cmax [2]: 400 µM
